Source: US20120029187A1, “HALOALKYLSULFONANILIDE DERIVATIVE” (Nissan Chemical Industries, Ltd., priority 2009, published 2012)

Assays:
Assay type in all cases: in vivo
barnyardgrass [1] = assay: Test Example 1: herbicidal effects in preemergence treatment under submerged conditions; conditions: dose 2.52 g/a
Method in brief: (§1)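 Weed seeds and 2.5-leaf rice seedlings shared each flooded cup of alluvial soil. Dosing, expressed as g per are, was by pouring water-diluted emulsifiable concentrate onto the surface on sowing day. Mortality was graded 0 to 5 after three weeks' growth.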

ducksalad [2] = assay: as above; conditions: dose 2.52 g/a
Method in brief: as §1

bulrush [3] = assay: as above; conditions: dose 2.52 g/a
Method in brief: as §1

giant foxtail [4] = assay: Test Example 3: herbicidal effects in soil treatment; conditions: dose 3.2 g/a
Method in brief: (§2)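 Seeds were sown in sterilized diluvial soil and covered with about 1.5 cm of soil. Compounds, formulated as emulsifiable concentrates and diluted with water, were sprayed evenly over the soil surface at set doses in g/a. Herbicidal effect was scored on a rating scale three weeks later.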

common chickweed [5] = assay: as above; conditions: dose 3.2 g/a
Method in brief: as §2

common ragweed [6] = assay: as above; conditions: dose 3.2 g/a
Method in brief: as §2

large crabgrass [7] = assay: as above; conditions: dose 3.2 g/a
Method in brief: as §2

barnyardgrass [8] = assay: as above; conditions: dose 3.2 g/a
Method in brief: as §2

posumbu knotweed [9] = assay: as above; conditions: dose 3.2 g/a
Method in brief: as §2

beadstraw [10] = assay: as above; conditions: dose 3.2 g/a
Method in brief: as §2

velvetleaf [11] = assay: as above; conditions: dose 3.2 g/a
Method in brief: as §2

redroot pigweed [12] = assay: as above; conditions: dose 3.2 g/a
Method in brief: as §2

water foxtail [13] = assay: as above; conditions: dose 3.2 g/a
Method in brief: as §2

common lambsquater [14] = assay: as above; conditions: dose 3.2 g/a
Method in brief: as §2

Italian ryegrass [15] = assay: as above; conditions: dose 3.2 g/a
Method in brief: as §2

giant foxtail [16] = assay: Test Example 4: herbicidal effect in foliage treatment; conditions: dose 3.2 g/a, three weeks after application
Method in brief: (§3)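 Weeds and crops sown in sterilized diluvial soil under ~1.5 cm cover and grown in greenhouse at 25 to 30° C. At 14 days, water-diluted emulsifiable concentrate sprayed onto foliage at set doses (g/a); herbicidal effect scored on a rating scale three weeks after application.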

common chickweed [17] = assay: as above; conditions: dose 3.2 g/a, three weeks after application
Method in brief: as §3

common ragweed [18] = assay: as above; conditions: dose 3.2 g/a, three weeks after application
Method in brief: as §3

large crabgrass [19] = assay: as above; conditions: dose 3.2 g/a, three weeks after application
Method in brief: as §3

barnyardgrass [20] = assay: as above; conditions: dose 3.2 g/a, three weeks after application
Method in brief: as §3

posumbu knotweed [21] = assay: as above; conditions: dose 3.2 g/a, three weeks after application
Method in brief: as §3

beadstraw [22] = assay: as above; conditions: dose 3.2 g/a, three weeks after application
Method in brief: as §3

velvetleaf [23] = assay: as above; conditions: dose 3.2 g/a, three weeks after application
Method in brief: as §3

redroot pigweed [24] = assay: as above; conditions: dose 3.2 g/a, three weeks after application
Method in brief: as §3

water foxtail [25] = assay: as above; conditions: dose 3.2 g/a, three weeks after application
Method in brief: as §3

common lambsquater [26] = assay: as above; conditions: dose 3.2 g/a, three weeks after application
Method in brief: as §3

Italian ryegrass [27] = assay: as above; conditions: dose 3.2 g/a, three weeks after application
Method in brief: as §3

transplanted rice = assay: Test Example 1: preemergence treatment under submerged conditions, effect on crop; conditions: dose 2.52 g/a
Method in brief: as §1

barnyardgrass [28] = assay: Test Example 2: herbicidal effects during the vegetation period under submerged conditions; conditions: treatment during the vegetation period under submerged conditions; dose 2.52 g/a
Method in brief: (§4)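 Barnyardgrass, bulrush and ducksalad were co-sown in alluvial soil flooded to 4 cm and grown in a greenhouse at 25 to 30° C. At the 1- or 2-leaf stage, water-diluted emulsifiable concentrates went onto the water surface at set doses (g/a). Herbicidal effect was scored three weeks later on a graded scale.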

ducksalad [29] = assay: as above; conditions: treatment during the vegetation period under submerged conditions; dose 2.52 g/a
Method in brief: as §4

bulrush [30] = assay: as above; conditions: treatment during the vegetation period under submerged conditions; dose 2.52 g/a
Method in brief: as §4

## CCOC(=O)N(c1ccccc1CN1COC(C)(c2cc(Cl)nn2C)CC1=O)S(=O)(=O)C(F)(F)F (stereo not shown) [II-60]
Barnyardgrass [1]
  A: barnyardgrass, herbicidal effect (evaluation scale 0-5): 5 (mortality of 90% or above (nearly complete death))
Ducksalad [2]
  C: ducksalad, herbicidal effect (evaluation scale 0-5): 5 (mortality of 90% or above (nearly complete death))
Bulrush [3]
  B: bulrush, herbicidal effect (evaluation scale 0-5): 5 (mortality of 90% or above (nearly complete death))
Giant foxtail [4]
  E: giant foxtail, herbicidal effect (evaluation scale 0-5): 5 (mortality of 90% or above (nearly complete death))
Common chickweed [5]
  N: common chickweed, herbicidal effect (evaluation scale 0-5): 4 (mortality of at least 70% and less than 90%)
Common ragweed [6]
  J: common ragweed, herbicidal effect (evaluation scale 0-5): 1 (mortality of at least 5% and less than 20%)
Large crabgrass [7]
  D: large crabgrass, herbicidal effect (evaluation scale 0-5): 4 (mortality of at least 70% and less than 90%)
Barnyardgrass [8]
  A: barnyardgrass, herbicidal effect (evaluation scale 0-5): 5 (mortality of 90% or above (nearly complete death))
Posumbu knotweed [9]
  M: posumbu knotweed, herbicidal effect (evaluation scale 0-5): 3 (mortality of at least 40% and less than 70%)
Beadstraw [10]
  O: beadstraw, herbicidal effect (evaluation scale 0-5): 0 (mortality of less than 5% (almost ineffective))
Velvetleaf [11]
  I: velvetleaf, herbicidal effect (evaluation scale 0-5): 4 (mortality of at least 70% and less than 90%)
Redroot pigweed [12]
  K: redroot pigweed, herbicidal effect (evaluation scale 0-5): 4 (mortality of at least 70% and less than 90%)
Water foxtail [13]
  G: water foxtail, herbicidal effect (evaluation scale 0-5): 5 (mortality of 90% or above (nearly complete death))
Common lambsquater [14]
  L: common lambsquater, herbicidal effect (evaluation scale 0-5): 1 (mortality of at least 5% and less than 20%)
Italian ryegrass [15]
  H: Italian ryegrass, herbicidal effect (evaluation scale 0-5): 3 (mortality of at least 40% and less than 70%)
Giant foxtail [16]
  E: giant foxtail, herbicidal effect: 3 (mortality of at least 40% and less than 70%)
Common chickweed [17]
  N: common chickweed, herbicidal effect: 4 (mortality of at least 70% and less than 90%)
Common ragweed [18]
  J: common ragweed, herbicidal effect: 3 (mortality of at least 40% and less than 70%)
Large crabgrass [19]
  D: large crabgrass, herbicidal effect: 3 (mortality of at least 40% and less than 70%)
Barnyardgrass [20]
  A: barnyardgrass, herbicidal effect: 4 (mortality of at least 70% and less than 90%)
Posumbu knotweed [21]
  M: posumbu knotweed, herbicidal effect: 2 (mortality of at least 20% and less than 40%)
Beadstraw [22]
  O: beadstraw, herbicidal effect: 4 (mortality of at least 70% and less than 90%)
Velvetleaf [23]
  I: velvetleaf, herbicidal effect: 3 (mortality of at least 40% and less than 70%)
Redroot pigweed [24]
  K: redroot pigweed, herbicidal effect: 0 (mortality of less than 5% (almost ineffective))
Water foxtail [25]
  G: water foxtail, herbicidal effect: 5 (mortality of 90% or above (nearly complete death))
Common lambsquater [26]
  L: common lambsquater, herbicidal effect: 2 (mortality of at least 20% and less than 40%)
Italian ryegrass [27]
  H: Italian ryegrass, herbicidal effect: 3 (mortality of at least 40% and less than 70%)
Transplanted rice
  a: transplanted rice, effect on crop (evaluation scale 0-5): 0 (mortality of less than 5% (almost ineffective))
Barnyardgrass [28]
  A: barnyardgrass, herbicidal effect (evaluation scale 0-5): 5 (mortality of 90% or above (nearly complete death))
Ducksalad [29]
  C: ducksalad, herbicidal effect (evaluation scale 0-5): 5 (mortality of 90% or above (nearly complete death))
Bulrush [30]
  B: bulrush, herbicidal effect (evaluation scale 0-5): 5 (mortality of 90% or above (nearly complete death))
